≈ marks a conversion by molar mass, not a printed value. Where “and” joins values, the source holds several entries; their conditions need not be identical. Equal values may be shown once. Read-outs that look alike come from different tables or passages of the source. Where a SMILES comes first, the peptide text is derived from it. [ ]: non-standard residue; d: D form. GABA = NCCCC(=O)O
What was measured:
[1] = system: Vibrio parahemolyticus (ZouB); experiment: microbe, parasite or virus in culture; assay type: cell-based
Procedure: (§1) Preliminary antimicrobial tests for compounds 1‒10 were carried out against pathogenetic strains, including Pseudomonas aeruginosa (ATCC 9027), methicillin-resistant Staphylococcus aureus (A7983, clinical isolate donated by Zhijun Yu in Dalian Friendship Hospital, Dalian, China), Vibrio parahemolyticus (ZouB, aquatic pathogen donated by Chongqing Wen in College of Fishery, Guangdong Ocean University, Zhanjiang, China), and Candida albicans (ATCC 10231) using the disc diffusion method. Muller Hinton agar (MHA) and Sabouraud agar (SA) were used for antibacterial and antifungal tests, respectively. For each sample, 10 μg was added onto paper disc (diameter of 6 mm) for tests. The minimum inhibition concentrations (MICs) of the compounds were tested using microdilution methods. Ampicillin and ketoconazole were taken as positive controls for antibacterial and antifungal tests, respectively. Solvents (MeOH and DMSO) were used as blank controls.

[2] = biological target: T1, Acetylcholinesterase (AChE, from electric eels) (Electrophorus electricus, UniProt O42275); experiment: AChE inhibition assay (modified Ellman's method); assay type: biochemical; settings: AChE Inhibitory Activity (IC50), 0.2 U/mL, 37 °C
T1 construct: purchased Sigma-Aldrich
T1 sequence (O42275 24-633): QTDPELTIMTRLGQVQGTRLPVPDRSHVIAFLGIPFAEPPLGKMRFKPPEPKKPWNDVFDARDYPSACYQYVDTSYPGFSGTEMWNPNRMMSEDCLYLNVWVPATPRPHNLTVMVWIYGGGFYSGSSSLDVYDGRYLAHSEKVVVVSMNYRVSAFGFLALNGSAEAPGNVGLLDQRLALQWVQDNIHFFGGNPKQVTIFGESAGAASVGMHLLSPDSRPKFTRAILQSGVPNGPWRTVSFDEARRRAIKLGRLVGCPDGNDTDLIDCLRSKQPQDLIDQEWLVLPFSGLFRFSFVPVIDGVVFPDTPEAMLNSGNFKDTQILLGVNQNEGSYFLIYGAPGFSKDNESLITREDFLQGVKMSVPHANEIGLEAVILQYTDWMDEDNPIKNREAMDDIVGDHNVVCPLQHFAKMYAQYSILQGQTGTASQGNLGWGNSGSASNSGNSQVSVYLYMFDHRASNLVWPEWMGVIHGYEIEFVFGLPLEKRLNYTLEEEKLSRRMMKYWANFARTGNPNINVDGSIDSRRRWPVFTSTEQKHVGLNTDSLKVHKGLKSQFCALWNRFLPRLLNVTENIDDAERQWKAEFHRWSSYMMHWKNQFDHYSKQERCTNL
Procedure: Acetylcholinesterase (AChE, from electric eels), acetythiocholine iodide (ATCh), 5,5-dithiobis-(2-nitrobenzoic acid) (DTNB), and bovine serum albumin (BSA, A1933) were purchased from Sigma-Aldrich. 100 mM PBS (pH = 7.4) was prepared with K2HPO4 and KH2PO4. In vitro AChE inhibitory activity was measured in 96-well plates using modified Ellman’s methods. […] Each well contained 1 μL of prepared sample, 49 μL of PBS, 10 μL of enzyme with a final concentration of 0.2 U/mL in BSA ([…] in PBS), and 20 μL of DTNB (5 mM in PBS). Then, the plates were preincubated at 37 °C for 10 min. Afterwards, 20 μL of ATCh (10 mM in PBS) was added into the well. After incubation at 37 °C for 20 min, the 96-well plates were read at 405 nm on the microplate reader, and the inhibition ratios to AChE were calculated using the following equation, where Asample blank stands for the absorbance of a well without enzyme, Asample stands for the absorbance of the treatment, Acontorl stands for the absorbance of the well without the sample, and Ablank stands for the absorbance of the well without the sample and enzyme. Donepezil was taken as a positive control. Inhibition of AChE (%)=[(Acontrol−Ablank)−(Asample−Asample blank)]/(Acontrol−Ablank)×100%
The inhibition rates and concentration logarithm (lnC) values were imported into the Origin 8.0 software (OriginLab Co., Ltd., Northampton, MA, USA). The cubic polynomial regression equation was used to calculate ln(IC50). Then, IC50 was calculated using Microsoft Excel.

[3] = system: Candida albicans (ATCC 10231); experiment: Antimicrobial microdilution method (MIC); assay type: cell-based; settings: ATCC10231, C. albicans
Procedure: as §1

[4] = system: methicillin-resistant Staphylococcus aureus (A7983, clinical isolate); experiment: Antimicrobial microdilution method (MIC); assay type: cell-based; settings: MRSA
Procedure: as §1

[5] = system: Pseudomonas aeruginosa (ATCC 9027); experiment: Antimicrobial microdilution method (MIC); assay type: cell-based; settings: ATCC9027, P. aeruginosa
Procedure: as §1

[6] = system: Candida albicans (ATCC 10231); experiment: Antimicrobial paper disc diffusion method; assay type: cell-based; settings: C. albicans, 10 μg per disc, paper disc diameter 6.0 mm, mean ± SD of three replicates; for zone of inhibition at 10 µg/disc: Candida albicans, ATCC10231
Procedure: as §1

[7] = system: methicillin-resistant Staphylococcus aureus (A7983, clinical isolate); experiment: Antimicrobial paper disc diffusion method; assay type: cell-based; settings: MRSA; for zone of inhibition at 10 µg/disc: Staphylococcus aureus; for Zone of Inhibition: 10 μg per disc, paper disc diameter 6.0 mm, mean ± SD of three replicates
Procedure: as §1

[8] = system: Vibrio parahemolyticus (ZouB); experiment: Antimicrobial paper disc diffusion method; assay type: cell-based; settings: V. parahemolyticus, incomplete inhibition, 10 μg per disc, paper disc diameter 6.0 mm, mean ± SD of three replicates; for zone of inhibition at 10 µg/disc: Vibrio
Procedure: as §1

[9] = system: Pseudomonas aeruginosa (ATCC 9027); experiment: Antimicrobial paper disc diffusion method; assay type: cell-based; settings: P. aeruginosa, 10 μg per disc, paper disc diameter 6.0 mm, mean ± SD of three replicates; for zone of inhibition at 10 µg/disc: Pseudomonas aeruginosa, ATCC9027
Procedure: as §1

[10] = DPPH free radical scavenging assay; settings: 0.16 mM DPPH, 30 min in darkness at room temperature
Procedure: The free radical scavenging potentials of compounds 1‒10 were evaluated in 96-well plates using the DPPH free radical scavenging assay described by Sharma and Bhat. A total of 100 μL of the reaction mixture was composed of 50 μL of 0.16 mM DPPH (Sigma-Aldrich, St. Louis, MO, USA) in methanol and 50 μL of the test compound (in DMSO) with different concentrations (Asample). The reaction mixture was incubated for 30 min in darkness at room temperature. Meanwhile, 50 μL of 0.16 mM DPPH with 50 μL of DMSO was used as control (Acontrol), 50 μL of methanol and 50 μL of different concentrations of the test compound in DMSO were used as the sample blanks (Asample blank), 50 μL methanol with 50 μL DMSO was used as the blank (Ablank), while vitamin C was taken as a positive control. The absorbance was measured at 517 nm on the microplate reader. Scavenging capacity (%)=[(Acontrol−Ablank)−(Asample−Asample blank)]/(Acontrol−Ablank)×100%
The EC50 value is the concentration required to scavenge 50% of DPPH radicals. Likewise, the EC50 was calculated using Origin 8.0 plotting and cubic polynomial regression.

[11] = Brine shrimp larva lethality test; assay type: in vivo, Artemia salina; settings: 24 h at 28 °C, read-out: Larvicidal Activity (LC50)
Procedure: Compounds 1‒10 were evaluated for larvicidality using the brine shrimp (Artemia salina) larva lethality test. 0.15 g of frozen eggs of brine shrimp larva (purchased from Aijia Aquarium Co., Zhanjiang, China) were activated at room temperature for 12 h. After activation, eggs were added to 1 L of artificial seawater (3% sea salt), ventilated with air for 420 mL/min, then kept at a brightness at 1000 lux and incubated at 28 °C for 24 h. After incubation, the larvae were induced to the top of the separating funnel by phototaxis, and the dead ones on bottom were discharged. Then, in each well of the 96-well plate, 1 μL of test compounds (in DMSO) with different concentrations and 99 μL of seawater containing 20‒30 live larvae were added. After incubation under light at 28 °C for 24 h, recorded the numbers of dead larvae. Finally, 10 μL of the Lucus reagent were added into each well and the total number of brine shrimp larva in the well were counted. DMSO and Hg(NO3)2 were used as blank control and positive control, respectively. Lethality rate (%)=(lethality of treatment−lethality of blank control)/survival rate of blank control×100%
The brine shrimp larva LC50 value is the concentration required to kill 50% of the larvae. Likewise, the LC50 was calculated using Origin 8.0 plotting and cubic polynomial regression.

[12] = Artemia salina (brine shrimp) larvae, live brine shrimp larvae in 96-well plate, other: immersion in seawater containing the compound

Row | SMILES | MIC ([1]; Vibrio) | IC50 [2] | MIC [3] | MIC [4] | MIC [5] | zone of inhibition at 10 µg/disc [6] | zone of inhibition at 10 µg/disc [7] | zone of inhibition at 10 µg/disc [8] | zone of inhibition at 10 µg/disc [9] | EC50 [10] | LC50 at 24 h [11, 12] | Zone of Inhibition [8] | MIC ([1]; Vibrio, V. parahemolyticus, microdilution method, read-out: MIC) | Zone of Inhibition [6] | MIC ([1]; V. parahemolyticus, microdilution method, read-out: MIC) | LC50 at 24 h ([11]; brine shrimp (Artemia salina), in vivo, brine shrimp larvae) | Zone of Inhibition [7] | Zone of Inhibition [9] | LC50 at 24 h ([11]; Artemia salina (brine shrimp) larvae, in vivo, other: compound added to the seawater holding the larvae)
1 | CC=C(C)c1c(Br)c(O)c(C)c2c1Oc1c(Br)c(O)cc(C)c1C(=O)O2 [Compound 5, aspergillusidone F] | > 102 µM | > 102 µM | > 102 µM | 25.6 µM (≈ 12.4 µg/mL) | 6.4 µM (≈ 3.1 µg/mL) | 7.5 ± 0.6 mm | 14.5 ± 0.6 mm | 6.3 ± 0.6 mm | 11.9 ± 0.2 mm | > 102 µM | 12.8 µM |  |  |  |  |  |  |  | 
2 | C/C=C(\C)c1cc(OC(=O)c2c(C)cc(O)cc2O)c(C)c(O)c1C(=O)O [Compound 1, (E)-6-(but-2-en-2-yl)-4-((2,4-dihydroxy-6-methylbenzoyl)oxy)-2-hydroxy-3-methylbenzoic acid] | > 102 µM | > 102 µM | 12.8 µM (≈ 4.77 µg/mL) | 51.2 µM (≈ 19.1 µg/mL) | 102 µM (≈ 38.1 µg/mL) | 8.3 ± 0.6 mm | 12 ± 1 mm | 9.3 ± 0.6 mm | 7.7 ± 0.6 mm | > 102 µM | > 102 µM |  |  |  |  |  |  |  | 
3 | CC=C(C)c1c(Cl)c(O)c(C)c2c1Oc1cc(O)c(Cl)c(C)c1C(=O)O2 [Compound 7, aspergillusidone C] | > 102 µM | > 102 µM | > 102 µM | > 102 µM | 25.6 µM (≈ 10.1 µg/mL) | 7.9 ± 0.2 mm | 13.7 ± 2.3 mm | 9.7 ± 0.6 mm | 10 mm | > 102 µM | 72 µM |  |  |  |  |  |  |  | 
4 | CC=C(C)c1c(Cl)c(OC)c(C)c2c1Oc1c(Cl)c(O)c(Cl)c(C)c1C(=O)O2 [Compound 4, nidulin] |  | > 102 µM | > 102 µM | 102 µM (≈ 45.4 µg/mL) | > 102 µM | 9 mm | 9 mm |  | 9.5 ± 0.6 mm | > 102 µM | 4.5 µM | - |  |  |  |  |  |  | 
5 | CC1(C)S[C@@H]2[C@H](NC(=O)[C@H](N)c3ccccc3)C(=O)N2[C@H]1C(=O)O [Ampicillin, reference compound] |  |  |  | 6.4 µM (≈ 2.24 µg/mL) | 1.6 µM (≈ 0.559 µg/mL) |  | 14 mm | 9 mm | 12 ± 1.4 mm |  |  |  | 102 µM (≈ 35.8 µg/mL) | - |  |  |  |  | 
6 | CC(C)[C@H]1NC(=O)[C@H](Cc2ccccc2)NC(=O)[C@@H](C(C)C)NC(=O)[C@@H](C)NC(=O)CCCNC(=O)[C@@H](Cc2c[nH]c3ccccc23)NC(=O)[C@@H](C)NC1=O [Compound 10, unguisin A] (cyclo(F[dV][dA][dW][GABA][dA][dV])) |  | > 102 µM |  |  |  |  |  |  |  |  |  |  |  |  | >102.4 µM | > 102 µM |  |  | 
7 | C/C=C(\C)c1cc(O)c(C)c(OC(=O)c2c(/C(C)=C/C)cc(O)c(C)c2O)c1 [Compound 2, agonodepside A] | > 102 µM | > 102 µM |  |  |  | 6 ± 0.5 mm |  | 8 mm |  | > 102 µM | > 102 µM |  |  |  |  |  | - | - | 
8 | C/C=C(\C)c1cc(O)c(C)c2c1Oc1cc(O)cc(C)c1C(=O)O2 [Compound 6, unguinol] | > 102 µM | > 102 µM | > 102 µM | > 102 µM | 102 µM (≈ 33.4 µg/mL) | 8 ± 0.5 mm | 7 mm | 7 mm | 8.7 ± 2.1 mm | > 102 µM | > 102 µM |  |  |  |  |  |  |  | 
9 | CC(=O)N1CCN(c2ccc(OCC3COC(Cn4ccnc4)(c4ccc(Cl)cc4Cl)O3)cc2)CC1 (stereo not shown) [Ketoconazole, reference compound] |  |  | 1.9 µM (≈ 1.01 µg/mL) |  |  | 22 mm |  |  |  |  |  | - |  |  |  |  | - | - | 
10 | O=C1O[C@H]([C@@H](O)CO)C(O)=C1O [Vitamin C, vitamin C, reference compound] |  |  |  |  |  |  |  |  |  | 31.8 µM |  |  |  |  |  |  |  |  | 
11 | CC=C(C)c1cc(O)c(C)c2c1Oc1cc(O)c(Cl)c(C)c1C(=O)O2 [Compound 8, 2-chlorounguinol] | > 102 µM | > 102 µM | > 102 µM | 25.6 µM (≈ 9.24 µg/mL) | 51.2 µM (≈ 18.5 µg/mL) | 10 mm | 17 mm | 8.3 ± 0.6 mm | 11.1 ± 0.2 mm | > 102 µM | 75.9 µM |  |  |  |  |  |  |  | 
12 | CC=C(C)c1c2c(c(C)c(O)c1C(=O)O)OC(=O)c1c(C)cc(O)cc1O2 [Compound 9, aspergillusidone A] | > 102 µM | 56.7 µM and 56.8 µM | 6.4 µM (≈ 2.37 µg/mL) | 12.8 µM (≈ 4.74 µg/mL) | 102 µM (≈ 37.9 µg/mL) | 15.5 ± 2.2 mm | 17.7 ± 0.6 mm | 8.3 ± 0.6 mm | 16 mm | > 102 µM | 51.2 µM |  |  |  |  |  |  |  | 
13 | CC=C(C)c1c(Cl)c(O)c(C)c2c1Oc1c(Cl)c(O)c(Cl)c(C)c1C(=O)O2 [Compound 3, nornidulin] |  | > 102 µM | > 102 µM |  | > 102 µM | 12.1 ± 0.2 mm |  |  | 12.2 ± 0.3 mm | > 102 µM |  | - |  |  |  |  | - |  | 12.8 µM

Reference: PMC6225302, “Depsidone Derivatives and a Cyclopeptide Produced by Marine Fungus Aspergillus unguis under Chemical Induction and by Its Plasma Induced Mutant” (Molecules : A Journal of Synthetic Chemistry and Natural …, 2018)
